Source: patent US8334107B2, “Detection systems utilizing supported lipid bilayers” (priority 2005, dated 2012)

Key:
[1] = test system: DMPG bilayer on PPE-coated beads; experiment: Microfluidic assay: detection of lipid bilayer disruption by fluorescence superquenching; type: biochemical; settings: injected as 1:1 mixture with 120 μM AQS
Experimental: The preparation of microcolumns with PPE-coated, silica beads was similar to that of with fluorescein containing beads. A 10 μL aliquot of 120 μM AQS was injected to the column. After a certain period of time, a 10 μL aliquot of 1:1 mixture of 120 μM AQS and 220 μM melittin was injected. During this process, the PPE-coated silica bead segment was irradiated at 488 nm and its fluorescence emission intensity was measured at 520 nm every 10 minutes. This experiment was repeated, while injecting 220 μM melittin first, and then 120 μM AQS.
The feasibility of using superquenching as a method of detecting membrane-toxin interactions in microcolumns was also investigated. The fluorescence intensity of the cationic polyelectrolyte poly(p-phenylene-ethynylene) polymer (PPE) can be super-quenched by the quencher 9,10-anthraquinone-2,6-disulfonic acid (AQS). […] It has been observed in flow cytometric studies that formation of DMPG membranes on PPE-coated beads will quench the PPE fluorescence to some extent. The initial rise in fluorescence intensity was probably due to the unquenching of the PPE, due to the removal of lipid bilayers from PPE-coated beads through melittin interaction, whereas the decrease in fluorescence corresponded to superquenching of PPE by AQS after disruption of DMPG bilayer by melittin. […]

[2] = test system: 80:20 (molar ratio) DMPG and DMPC lipid bilayers on porous silica beads; experiment: Suspension study: melittin-induced release of fluorescein dye from DMPG/DMPC coated porous beads; type: biochemical; settings: 220 μM melittin, 25° C., 80:20 DMPG:DMPC
Experimental: Experimental procedures were similar to the Triton X-100® detergent based analysis. For experiments with α-toxin, three different toxin concentrations: 15, 45 and 250 μg/mL were used at 37° C. and 25° C. Beads coated with EPC were used. In the experiments with melittin, 220 μM melittin was used with beads coated with either 100% EPC, 10:90 (molar ratio) mixture of DMPG and EPC or an 80:20 mixture of DMPG and DMPC. All melittin experiments were conducted at 25° C.
Previous suspension studies on disruption of lipid bilayers have been performed with small unilamellar vesicles where disruption of the lipid bilayer membranes was detected by monitoring the unquenching of a highly concentrated, encapsulated dye. In the present work disruption was monitored via release of fluorescein dye from porous beads, by measuring the increase in fluorescence intensity of the supernatant at 520 nm. Beads were first suspended in Tris buffer containing the disruptor. […] The measured portion was added back to the bead sample to permit continuous monitoring. […]
In view of the results shown in FIG. 5, the effects of melittin on other mixtures of lipids were examined. […] The increase in fluorescence intensity due to the membrane-melittin interaction, which results in the release of dye from porous beads was about 10 fold. […]

lipid bilayer = experiment: Superquenching of fluorescent polymer coated lipid bilayer beads (general statement); type: biochemical; settings: streptolysin O with cholesterol-containing lipids, mellitin with anionic lipids
From the text: On the other hand, some test agents may only lead to gaps or smaller interruptions of the lipid bilayer, for example, as a result of insertion of a channel- or pore-forming proteins such as gramicidin and hemolysin. In either case, the result is either complete or partial superquenching of the fluorescent polymer. In general, non-porous beads are used for such quenching assays because the quenchable polymer is preferably coated onto the beads and is not impregnated into the beads.

[3] = test system: 80:20 (molar ratio) DMPG and DMPC membrane on biotin containing porous beads; experiment: Microfluidic study: detection of membrane interaction by release of reagent (biotin, ostrich quenching-unquenching); type: biochemical; settings: 20 μL of melittin (220 μM), flow ~1.2 μL/min
Experimental: A microchannel was packed with a segment (about 1 mm) of streptavidin coated beads to which a non saturating amount of fluorescein biotin had been bound. This was followed by a segment (about 1 mm) of blank silica beads and a segment (about 2 mm) of lipid coated porous beads containing biotin. The blank silica beads were served as the spacer to prevent mixing of fluorescein biotin beads with biotin encapsulated beads. Biotin (25 mM) was encapsulated (according to the same procedure for fluorescein) with a 80:20 (molar ratio) mixture of DMPG and DMPC. A […] aliquot of either 10% Triton X-100® detergent or 220 μM melittin was injected to the column. The fluorescein biotin bead segment was irradiated at 488 nm and its fluorescence emission intensity was measured at 520 nm every 10 minutes.
In this study the membrane-toxin interaction was investigated using the microcolumn system by monitoring a bimolecular reaction on downstream beads. […] The unquenching of fluorescence was the signal for the disruption. […] Introduction of free biotin displaced the fluorescein from the cis binding pocket thus unquenching the fluorescence signal. […]
20 μL of melittin (220 μM) was injected to the bead packed microchannel at 18 min. […] The initial fluorescence intensity decrease is again due to photobleaching, resulting from exposure of the fluorescein-biotin segment to the Ar ion laser. […]

DMPG supported on MS-PPE = experiment: Binding curves of MLT to DMPG supported on MS-PPE (superquenching flow cytometric assay); settings: flow cytometry, 10 μM AQS
Experimental: FIGS. 18A-B show binding curves for MLT-disruption of supported lipid bilayer by natural MLT (nMLT; FIG. 18A), and synthetic MLT (sMLT; FIG. 18B). Fluorescence intensity was normalized to that without MLT as determined by flow cytometry. The error bars represent the standard deviation (SD) of the means of normalized histograms obtained for 3 replicates.
(§1) Bead suspensions of 2.5×10^5 DMPG-coated MS-PPE in 200 μL of PBS were analyzed using a FACScan flow cytometer (Becton-Dickinson, Sunnyvale, Calif.) with excitation at 488 nm. Fluorescence signals were acquired on FL-1 channel (525 nm) using log amplification and analyzed with the CellQuest software. Kinetic analysis of disruption of supported lipid bilayer by melittin was performed by acquiring real-time data with continuous mixing of samples (10^6 MS-PPE in 800 μl of PBS) using a magnetic stirrer. The raw data were analyzed using IDL Query software developed by Bruce Edwards (Cancer Center, University of New Mexico, Albuquerque, N. Mex.).
From FIG. 18, the association constant (corresponding to the reciprocal of the point of half saturation) for nMLT and sMLT with DMPG were 5×10^6 M^−1 and 1.7×10^6 M^−1, respectively. […] Lower concentrations of nMLT, in comparison to sMLT, were required to disrupt the DMPG lipid bilayer. This might be attributed to the fact that nMLT contains some phospholipase A2 (PLA2) as a contaminant. […]

[4] = test system: DMPG lipid bilayer on MS-PPE; experiment: Disruption of DMPG lipid bilayer on MS-PPE detected by superquenching with AQS, flow cytometry; type: biochemical
Experimental: Lipid bilayers were disrupted by adding Triton X-100® detergent to the bead suspension to a final concentration of 0.25% (w/v).
Bead suspensions of 2.5×10^5 PPE-coated microspheres in 200 μL PBS were analyzed using a FACScan flow cytometer (Becton-Dickinson, Sunnyvale, Calif.) with excitation at 488 nm. Fluorescence signals were acquired on the FL-1 channel (525 nm) using log amplification and analyzed with the CellQuest software.
as §1
Because an anionic lipid was used to form a lipid bilayer around MS-PPE, it was expected that MLT will disrupt the DMPG lipid bilayer by such a detergent-like action. This was tested by adding 10 μM AQS to DMPG-coated MS-PPE followed by treatment with one of the following: Triton X-100® detergent, synthetic MLT (sMLT), or natural MLT (nMLT) and immediately reading the fluorescence by flow cytometry. […] These histograms resemble the ones reported previously for MS-PPE, without a lipid coating, in absence and in presence of AQS.
The kinetics of disruption of supported lipid bilayer by MLT were monitored by measuring real-time changes in fluorescence intensity by flow cytometry (FIG. 19). Suspensions of 10^6 DMPG-coated MS-PPE in 800 μL of PBS were treated with AQS at a final concentration of 10 μM, then with either sMLT, Triton X-100® detergent, or no treatment. […] Treatment with sMLT in the absence of AQS led to an increase in normalized fluorescence (FIG. 19, trace A). This can be attributed to disruption of the lipid bilayer by sMLT, and is consistent with a reversal of the slight quenching of fluorescence caused by the formation of a DMPG lipid bilayer over MS-PPE. Addition of AQS alone to DMPG-coated MS-PPE (FIG. 19, trace C) led to a 20% reduction in fluorescence as reported earlier. Addition of Triton X-100® detergent to DMPG-coated MS-PPE after the addition of AQS (first dip in trace E, FIG. 19) caused immediate decrease in fluorescence to ˜10% of its original value (second dip in trace E, FIG. 19). In contrast, addition of sMLT, after the addition of AQS, (FIG. 19, trace D) led to a gradual reduction of fluorescence intensity to ˜20% of the original value. Although MLT forms dimers at high concentrations (Dempsey, C. E. Biochim. Biophys. Acta 1990, 1031, 143-161), it is monomeric at the concentrations used in this study. On the other hand, Triton X-100® detergent forms micelles at the concentration used in this study.

[5] = test system: immobilized anionic DMPG membranes; settings: surface plasmon resonance; cited from earlier work

Compound | change in fluorescence intensity of bead segment [1] | increase in fluorescence intensity due to the membrane-melittin interaction [2] | effect on the lipid bilayer (lipid bilayer) | increase in fluorescence intensity of fluorescein-biotin segment [3] | association constant (reciprocal of the point of half saturation) with DMPG (DMPG supported on MS-PPE) | quenching of the MS-PPE after treatment ([4]; 10 μM AQS, sMLT 3.8 μM, nMLT 1.6 μM) | fluorescence intensity, of the original value ([4]; real-time kinetics, added after 10 μM AQS (traces D, E)) | association constant [5]
CC[C@H](C)[C@H](NC(=O)CN)C(=O)NCC(=O)N[C@@H](C)C(=O)N[C@H](C(=O)N[C@@H](CC(C)C)C(=O)N[C@@H](CCCCN)C(=O)N[C@H](C(=O)N[C@@H](CC(C)C)C(=O)N[C@H](C(=O)N[C@H](C(=O)NCC(=O)N[C@@H](CC(C)C)C(=O)N1CCC[C@H]1C(=O)N[C@@H](C)C(=O)N[C@@H](CC(C)C)C(=O)N[C@H](C(=O)N[C@@H](CO)C(=O)N[C@@H](Cc1c[nH]c2ccccc12)C(=O)N[C@H](C(=O)N[C@@H](CCCCN)C(=O)N[C@@H](CCCNC(=N)N)C(=O)N[C@@H](CCCCN)C(=O)N[C@@H](CCCNC(=N)N)C(=O)N[C@@H](CCC(N)=O)C(=O)N[C@@H](CCC(N)=O)C(N)=O)[C@@H](C)CC)[C@@H](C)CC)[C@@H](C)O)[C@@H](C)O)C(C)C)C(C)C [melittin] | slight rise in fluorescence intensity followed by a significant decrease | about 10 fold | total disruption of the bilayer | not as high as that observed for Triton X-100 |  |  |  | 
sMLT: synthetic melittin obtained from Sigma |  |  |  |  | 1.7e+06 M⁻¹ | comparable to that occurring on addition of Triton X-100 | ~20% | 2e+06 M⁻¹
